Reference: publication PMC9705314, “Characterization of a new potent and long-lasting single chain peptide agonist of RXFP1 in cells and in vivo translational models” (Scientific Reports, 2022)
*1 amine or outer side, *2 acyl side, *3 side chain or, on linkers, in order; H or OH if unused. Where a SMILES comes first, the peptide text is derived from it. Side-chain parts run from the residue outwards. [ ]: non-standard residue; d: D form. The star is where a group is joined. γGlu = O=C(O)[C@H](CCC(=O)[*:2])N[*:1]; Stearoyl = CCCCCCCCCCCCCCCCCC(=O)*; Nle = CCCC[C@H](N)C(=O)O; AEEA = NCCOCCOCC(=O)O; Aib = CC(C)(N)C(=O)O

Columns and labels:
hRXFP1 (F76V) = molecular target: T1, hRXFP1 (F76V) (Homo sapiens, UniProt Q9HBX9, F76V); test: cAMP production in HEK cells expressing hRXFP1 (F76V); format: cell-based; conditions: hRXFP1 F76V mutant, n = 4 experiments in duplicate
T1 sequence (Q9HBX9 1-757 F76V): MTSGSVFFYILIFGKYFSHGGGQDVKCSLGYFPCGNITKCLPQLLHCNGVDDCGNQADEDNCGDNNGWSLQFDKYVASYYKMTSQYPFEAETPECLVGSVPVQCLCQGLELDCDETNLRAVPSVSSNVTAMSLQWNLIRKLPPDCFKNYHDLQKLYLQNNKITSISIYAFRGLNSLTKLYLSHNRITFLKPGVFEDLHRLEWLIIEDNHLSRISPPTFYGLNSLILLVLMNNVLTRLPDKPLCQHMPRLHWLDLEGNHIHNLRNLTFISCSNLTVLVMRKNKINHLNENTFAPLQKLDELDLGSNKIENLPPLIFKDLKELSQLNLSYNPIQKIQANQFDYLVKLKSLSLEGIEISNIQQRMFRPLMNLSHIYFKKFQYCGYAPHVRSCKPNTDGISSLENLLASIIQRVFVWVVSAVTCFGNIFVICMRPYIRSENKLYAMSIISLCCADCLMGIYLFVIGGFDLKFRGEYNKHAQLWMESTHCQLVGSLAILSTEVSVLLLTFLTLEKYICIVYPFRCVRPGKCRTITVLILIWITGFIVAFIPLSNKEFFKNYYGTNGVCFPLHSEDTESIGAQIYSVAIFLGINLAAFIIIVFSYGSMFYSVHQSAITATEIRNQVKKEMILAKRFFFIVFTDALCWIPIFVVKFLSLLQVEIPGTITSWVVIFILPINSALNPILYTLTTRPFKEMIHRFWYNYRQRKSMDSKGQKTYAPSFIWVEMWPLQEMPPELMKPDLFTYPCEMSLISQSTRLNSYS
Experimental: HEK cells were stably transduced with lentiviral constructs (Vectalys, MOI 20, batches rV2.1A1.5057 B, rV2.1A1.5056 B and rV2.1A1.5059 B) containing a bicistronic vectors encoding hRXFP1 (S69P) or hRXFP1 (F76V) or hRXFP1 (S69P/F76V) under the EF1 promoter followed by an internal ribosome entry site (IRES) elements to express the neomycin antibiotic resistance gene for selection with 500 μg/mL Geneticin (Invitrogen, #10131-019). Three days post transduction, HEK cells were grown in the presence of Genetecin. Positive individual clones were selected and amplified, and cAMP readout (nM) was used as described for other cell types at a cell density of 8000 cells/well.

[1] = Pharmacokinetics in Sprague-Dawley rats; format: in vivo, rat; conditions: for T1/2 (apparent terminal half-life): 1 mg/kg; for CL / AUXext: IV 1 mg/kg
Experimental: Sprague Dawley rats (10–12 weeks old) obtained from Charles Rivers Laboratories (Como, Iltaly) were dosed with study peptide at 1 mg/kg IV and 3 mg/kg SC as a solution in PBS (0.2 mg/mL and 0.6 mg/mL respectively). Blood samples were collected from individual animals at the following time points: 0.083, 0.25, 0.5, 1, 3, 6, 8, 24, 48 and 72 h (IV route) and 0.25, 0.5, 1, 2, 4, 8, 12, 24, 48 and 72 h (SC route). All samples, collected into K3-EDTA tubes, were centrifuged and plasma was harvested and stored at − 80 °C until analysis. Two hundred μL of 0.1% formic acid in methanol containing 10 ng/mL warfarin as internal standard were added to 50 μL of standard, QC and PK study samples to obtain the protein precipitation. Each sample was vortexed and centrifuged, for 20 min, at 17,000 rcf at 4 °C. Ten microliters of the extracted plasma samples were injected onto the column. Chromatographic separation was performed on an Ultimate 3000 (Thermo Scientific) chromatography system using an XSelect Peptide CSH C18, (50 mm × 2.1 mm I.D., 2.5 μm, 130 Å; Waters Corporation) with a flow rate of 0.500 mL/min at 60 °C and a two-solvent linear gradient system. Solvents A (water) and B (acetonitrile) contained both 0.1% formic acid. […] The Ultimate 3000 was coupled to an Orbitrap QExactive™ mass spectrometer (Thermo Scientific) in positive mode. Quantitation was performed in full scan. The optimized source parameters were as follows: ion spray voltage 2.9 kV, sheath gas flow 50 a.u., aux gas flow 15 a.u., aux T 300 °C, capillary T 320 °C, S-lens RF level 50%. Full MS parameters were as follows: mass range 150–2000, AGC target 1 × 10^6, max injection time 250 ms, resolution 70,000 (FWHM @ 200 m/z). Data processing was performed using Xcalibur 3.0 (Thermo Scientific). Ion current of the [M + 5H]5 + of the SA10SC-RLX was extracted with 5 ppm window for quantitation (814.47219 m/z). A calibration curve with 12 standard points was prepared freshly on the day of analysis by spiking appropriate amounts of an intermediate working standard solution into blank rat plasma and ranged from 1.22 to 20,000 ng/mL (0.30–4910 nM). Three QC samples, each at six concentration levels from 5.0 to 15,000 ng/mL (1.22–3690 nM), were used for all analyses. Calibration curves were prepared by plotting the analyte to internal standard peak area ratio versus concentration. Calibration standards were fit by linear regression with 1/x^2 weighting. QC samples (n = 3) were used at six concentration levels. Accepted calibration curve contained minimum 7 concentration levels within ± 20% of nominal. Accepted QCs were within ± 25% of nominal. PK parameters were calculated by non-compartmental analysis using Watson LIMS 7.5.

Compound	cAMP response (efficacy) (hRXFP1 (F76V))	level at time molar at 12 h ([1]; Sprague-Dawley, rat, plasma, rats, SC 3 mg/kg, read-out: plasma concentration after 12 h) [nM]	T1/2 (apparent terminal half-life) ([1]; male Sprague-Dawley rats, IV 1 mg/kg in PBS, plasma, LC-HRMS, non-compartmental analysis, mean of n = 3) [h]	T1/2 (apparent terminal half-life) ([1]; male Sprague-Dawley rats, IV 1 mg/kg in PBS, plasma, LC-HRMS, non-compartmental analysis, mean of n = 3, listed as SA10SC_RLX) [h]	CL ([1]; male Sprague-Dawley rats, plasma, LC-HRMS, animal 1) [mL/min/kg]	CL ([1]; male Sprague-Dawley rats, plasma, LC-HRMS, animal 2) [mL/min/kg]	CL ([1]; male Sprague-Dawley rats, plasma, LC-HRMS, animal 3) [mL/min/kg]	AUXext ([1]; male Sprague-Dawley rats, plasma, animal 1) [%]	AUXext ([1]; male Sprague-Dawley rats, plasma, animal 2) [%]	AUXext ([1]; male Sprague-Dawley rats, plasma, animal 3) [%]	Cmax ([1]; male Sprague-Dawley rats, SC 3 mg/kg in PBS, plasma, LC-HRMS, non-compartmental analysis, mean of n = 3) [nM]	Tmax ([1]; male Sprague-Dawley rats, SC 3 mg/kg in PBS, plasma, LC-HRMS, mean of n = 3) [h]	F ([1]; male Sprague-Dawley rats, SC 3 mg/kg vs IV 1 mg/kg, mean of n = 3) [%]	AUCext ([1]; male Sprague-Dawley rats, SC 3 mg/kg, plasma, mean of n = 3) [%]	AUC ([1]; rat, male Sprague-Dawley rats, IV 1 mg/kg in PBS, plasma, LC-HRMS, non-compartmental analysis, mean of n = 3) [µM·h]	clearance ([1]; rat, male Sprague-Dawley rats, IV 1 mg/kg in PBS, plasma, LC-HRMS, non-compartmental analysis, mean of n = 3, read-out: CL (plasma clearance)) [mL/min/kg]	C0 ([1]; rat, male Sprague-Dawley rats, IV 1 mg/kg in PBS, plasma, LC-HRMS, non-compartmental analysis, mean of n = 3, read-out: Co) [nM]	Vd ([1]; rat, male Sprague-Dawley rats, IV 1 mg/kg in PBS, plasma, LC-HRMS, non-compartmental analysis, mean of n = 3, read-out: Vss) [L/kg]	AUC ([1]; rat, male Sprague-Dawley rats, SC 3 mg/kg in PBS, plasma, LC-HRMS, non-compartmental analysis, mean of n = 3) [µM·h]
relaxin	reduced in all RXFP1 mutants compared to the wild type construct	–	–	–	–	–	–	–	–	–	–	–	–	–	–	–	–	–	–
CCCCCCCCCCCCCCCCCC(=O)N[C@@H](CCC(=O)N[C@@H](CCC(=O)N[C@@H](CCC(=O)NCCOCCOCC(=O)NCCOCCOCC(=O)NCCOCCOCC(=O)NCCCC[C@H](NC(=O)[C@H](CCCCNC(C)=O)NC(=O)[C@H](CCCCN)NC(=O)[C@H](CCCNC(=N)N)NC(=O)C(C)(C)NC(=O)[C@H](CO)NC(=O)[C@H](Cc1c[nH]c2ccccc12)NC(=O)[C@@H](NC(=O)[C@H](CO)NC(=O)[C@H](CCCC)NC(=O)CNC(=O)[C@H](CCC(=O)O)NC(=O)C(C)(C)NC(=O)C(C)(C)NC(=O)[C@@H](NC(=O)[C@H](CCCCNC(C)=O)NC(=O)[C@H](C)NC(=O)[C@H](CCCNC(=N)N)NC(=O)[C@@H](NC(=O)[C@H](CCCCN)NC(=O)[C@H](CCC(=O)O)NC(=O)[C@H](CCCNC(=N)N)NC(=O)CNC(=O)[C@H](CCC(=O)O)NC(=O)[C@H](CC(C)C)NC(C)=O)C(C)C)[C@@H](C)CC)[C@@H](C)O)C(N)=O)C(=O)O)C(=O)O)C(=O)O [SA10SC-RLX] (Ac-LEGREKVRAK(Ac)I[Aib][Aib]EG[Nle]STWS[Aib]RKK(Ac)K([AEEA-AEEA-AEEA-γGlu-γGlu-γGlu-Stearoyl])-NH2)	–	~1000	4	3.9	0.48	0.44	0.38	1.01	1.01	1.02	1500	8	74	1.09	9.57	0.43	3200	0.12	21.2
